Molecules are shown by their SMILES.

We go through one molecule from patent US9505798B2, “Steroid compounds as RORyt modulators and uses thereof” (New York University, priority 2010, dated 2016).

What all share (format): cell-based
Assay [1] concerns the target T1, RORα (Mus musculus, UniProt P51448).
T1 construct: mouse RORα (amino acids 142 to end); expressed in transfected cells
Nature of the assay: S2 cell RORα luciferase reporter. The conditions noted are these: 10 μM, FIG. 1c. From the text: The Drosophila S2 cell line was originally purchased from Invitrogen and was maintained in Schneider's medium supplemented with 10% heat-inactivated bovine fetal calf serum and antibiotics (Invitrogen). Gal4 DNA binding domain (G4 DBD) corresponding to amino acids 1 through 147 of Gal4 protein was PCR amplified to make a fusion construct with mouse RORγt (amino acids 79 to the carboxyl terminal end) lacking its DNA binding domain. The resulting chimeric gene was subcloned into the copper inducible pMT/V5-His A vector (Invitrogen). In a similar manner, Gal4 fusion constructs were prepared with mouse RORα (amino acids 142 to end) or Drosophila DHR3 (amino acids 120 to end). Coding sequences for firefly luciferase (Promega) were PCR amplified and subcloned into pUAST vector containing Gal4 binding enhancer sequences. Renilla luciferase construct under the polIII promoter was obtained from Dr. Dasgupta's laboratory (NYU medical center). In order to generate stable cell lines, cells were co-transfected with pMT-G4 DBD-RORγt, pMT-G4 DBD-RORα, pMT-G4 DBD-DHR3, or pMT-G4 DBDVP16 and pHygro plasmids (Invitrogen) and screened for resistant colonies in the presence of hygromycin (0.3 mg/mL). […]
A general note: A reporter such as luciferase makes a cellular process visible.

The test system of assay [2] is pre-differentiated mouse Th17 cells. Nature of the assay: Pre-differentiated mouse Th17 cells from MOG-immunized mice, in vitro. The conditions noted are these: expanded Th17 cells from immunized mice, 10 μM. From the text: Mononuclear cells were collected from draining lymph nodes of wild-type or IL-23RGFP knock-in heterozygous mice 7 days after MOG(35-55)/CFA injection.

In assay [3] the test system is mouse Th17 cell differentiation. Nature of the assay: In vitro mouse naive CD4+ T cell polarization. On the procedure: Naive CD25^− CD62L^+CD44^low/int cells were sorted from RORγt^fl/fl mice and transduced with control-IRES-GFP (WT) or CRE-IRES-GFP (KO) retrovirus. […] FACS-sorted naive T cells were transduced with retroviral vectors encoding murine RORα-IRES-GFP or RORγt-IRES-GFP on Day 1 (16 h after TCR stimulation) and GFP expressing cells were gated for analysis on Day 5. […] Lymphocytes were isolated on day 21 after disease induction. The cells were stimulated for 4 h with PMA/Ionomycin and stained for surface markers and intracellular cytokines.
T cells were purified from lymph nodes and spleens of six to eight weeks old B6 mice (Taconic), by magnetically depleting B220^+ cells (autoMACS, Miltenyi), and then sorting CD8^−DAPI^−CD19^−CD4^+CD25^−CD62L^+CD44^low/Int naive T cells on a FACSAria (BD). […] For T cell polarization, 200 μl cells were seeded at 0.4×10^5 cells per mL in 96-well plates pre-coated with anti-CD3ε (5 μg/mL) and anti-CD28 (10 μg/mL). Cells were cultured for 4-5 days in Th17 (TGF-β (0.3 ng/mL), IL-6 (20 ng/mL), and anti-IFN-γ and anti-IL-4 (2 ng/mL)), Th1 (IL-12 (10 ng/mL), IL-2 (10 U/mL) and anti-IL-4 (2 ng/mL)), or Th2 (IL-4 (10 ng/mL), and anti-P35 and anti-IFN-γ 2 ng/mL)) conditions. For ectopic expression ROR proteins, native CD4^+ T cells were infected with retroviral MIGr-control, MIGr-RORα or MIGr-RORγ 24 hrs after activation, and cultured without exogenous cytokines or only with IL-6. At day 1, compounds dissolved in DMSO were added. For cytokine analysis, cells were incubated for 5 hours with phorbol 12-myristate 13-acetate (50 ng/mL; Sigma), ionomycin (500 ng/mL; Sigma) and GolgiStop (BD). Intracellular cytokine staining was performed according to the manufacturer's protocol (Cytofix/Cytoperm buffer set from BD) with alexa647-conjugated anti-IL-17a (eBioscience), and PE-conjugated anti-IFN-γ or anti-IL-4 (eBioscience). An LSR II (BD Biosciences) and FlowJo software (Tree Star) were used for flow cytometry and analysis. Dead cells were excluded using the Live/Dead fixable aqua dead cell stain kit (Invitrogen).
Complementary DNAs (cDNAs) were synthesized from TRIzol (Invitrogen) isolated RNA, using M-MLV Reverse Transcriptase (Promega). Real-time RT-PCR was performed with SYBRgreen master mix (Roche) and the Roche real-time PCR system (Roche480). Gene specific values were normalized to Actb for each sample.

T1 sequence (P51448 142-523 limits assumed): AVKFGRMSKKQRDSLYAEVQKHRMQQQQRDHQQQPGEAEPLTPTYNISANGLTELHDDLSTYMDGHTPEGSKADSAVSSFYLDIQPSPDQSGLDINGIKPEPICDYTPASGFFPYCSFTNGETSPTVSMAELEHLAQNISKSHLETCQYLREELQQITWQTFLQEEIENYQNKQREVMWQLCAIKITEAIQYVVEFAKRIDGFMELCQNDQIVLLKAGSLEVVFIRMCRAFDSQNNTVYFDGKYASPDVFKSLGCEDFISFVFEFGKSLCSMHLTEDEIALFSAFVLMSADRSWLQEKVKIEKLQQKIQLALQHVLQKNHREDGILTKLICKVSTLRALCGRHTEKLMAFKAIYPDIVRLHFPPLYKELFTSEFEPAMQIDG

Turning to `C[C@H]1O[C@@H](O[C@H]2[C@@H](O)C[C@H](O[C@H]3[C@@H](O)C[C@H](O[C@H]4CC[C@@]5(C)[C@H](CC[C@@H]6[C@@H]5C[C@@H](O)[C@]5(C)[C@@H](C7=CC(=O)OC7)CC[C@]65O)C4)O[C@@H]3C)O[C@@H]2C)C[C@H](O)[C@@H]1O` [Digoxin], the “effect on transcriptional activity of RORα” value in assay [1] is “no effect”. The “IL-23R and IL-17a expression” value in assay [2] is “inhibited both IL-23R (FIG. 4a) and IL-17a (FIG. 4b, bottom) expression without affecting IFN-γ expression”. Moreover, in assay [3], the “differentiation of naive CD4+ T cells into Th1, Th2 and regulatory T cells” value is “no effect”. In assay [3] (Th17 conditions), the “induction of RORγt mRNA and protein expression” value was “not affected”. The “transcriptional up-regulation of IL-23 receptor (IL-23R) gene” value in assay [3] (Th17 polarizing conditions) is on record as “strongly inhibited”. Moreover, in assay [3] (Th17 polarizing conditions, 10 μM), the “expression of IL-17a mRNA and protein” value is on record as “markedly reduced”.
